Source: the NIST ThermoML archive (doi:10.1007/s10765-007-0223-x)

Assay: xn = mol fraction of the nth substance listed
Conditions: 101 kPa, Liquid; for speed of sound: Single path-length method

COC(C)(C)C [2-methoxy-2-methylpropane] + CC(C)CC(C)(C)C
Conditions	mass density [kg/m3]	speed of sound [m/s]
288.15 K, x1 = 0.049	697.553	1121.8
288.15 K, x1 = 0.091	698.921	1119.5
288.15 K, x1 = 0.197	702.655	1113.9
288.15 K, x1 = 0.296	706.427	1108.7
288.15 K, x1 = 0.394	710.506	1103.7
288.15 K, x1 = 0.507	715.659	1098.5
288.15 K, x1 = 0.603	720.373	1094.9
288.15 K, x1 = 0.7	725.737	1090.9
288.15 K, x1 = 0.79	731.164	1087.8
288.15 K, x1 = 0.898	738.236	1084.6
288.15 K, x1 = 0.951	742.111	1083.4
288.15 K, x1 = 1	744.861	1082.1
290.65 K, x1 = 0.049	695.495	1111.2
290.65 K, x1 = 0.091	696.847	1108.8
290.65 K, x1 = 0.197	700.534	1103.3
290.65 K, x1 = 0.296	704.261	1097.9
290.65 K, x1 = 0.394	708.292	1092.9
290.65 K, x1 = 0.507	713.386	1087.6
290.65 K, x1 = 0.603	718.048	1083.9
290.65 K, x1 = 0.7	723.357	1079.8
290.65 K, x1 = 0.79	728.726	1076.7
290.65 K, x1 = 0.898	735.725	1073.3
290.65 K, x1 = 0.951	739.564	1072
290.65 K, x1 = 1	742.259	1070.6
293.15 K, x1 = 0.049	693.424	1100.6
293.15 K, x1 = 0.091	694.76	1098.2
293.15 K, x1 = 0.197	698.399	1092.6
293.15 K, x1 = 0.296	702.081	1087.1
293.15 K, x1 = 0.394	706.064	1082
293.15 K, x1 = 0.507	711.097	1076.7
293.15 K, x1 = 0.603	715.704	1072.9
293.15 K, x1 = 0.7	720.957	1068.7
293.15 K, x1 = 0.79	726.269	1065.5
293.15 K, x1 = 0.898	733.196	1062
293.15 K, x1 = 0.951	736.997	1060.6
293.15 K, x1 = 1	739.654	1059.1
295.65 K, x1 = 0.049	691.351	1090
295.65 K, x1 = 0.091	692.668	1087.5
295.65 K, x1 = 0.197	696.259	1081.8
295.65 K, x1 = 0.296	699.893	1076.2
295.65 K, x1 = 0.394	703.829	1071.1
295.65 K, x1 = 0.507	708.799	1065.6
295.65 K, x1 = 0.603	713.354	1061.7
295.65 K, x1 = 0.7	718.545	1057.5
295.65 K, x1 = 0.79	723.8	1054.2
295.65 K, x1 = 0.898	730.656	1050.5
295.65 K, x1 = 0.951	734.419	1049
295.65 K, x1 = 1	737.036	1047.8
298.15 K, x1 = 0.049	689.271	1079.4
298.15 K, x1 = 0.091	690.571	1076.9
298.15 K, x1 = 0.197	694.113	1071.2
298.15 K, x1 = 0.296	697.7	1065.5
298.15 K, x1 = 0.394	701.586	1060.2
298.15 K, x1 = 0.507	706.495	1054.7
298.15 K, x1 = 0.603	710.995	1050.7
298.15 K, x1 = 0.7	716.128	1046.4
298.15 K, x1 = 0.79	721.323	1042.9
298.15 K, x1 = 0.898	728.107	1039.2
298.15 K, x1 = 0.951	731.831	1037.6
298.15 K, x1 = 1	734.406	1036.6
300.65 K, x1 = 0.049	687.187	1068.9
300.65 K, x1 = 0.091	688.468	1066.3
300.65 K, x1 = 0.197	691.962	1060.5
300.65 K, x1 = 0.296	695.502	1054.7
300.65 K, x1 = 0.394	699.338	1049.4
300.65 K, x1 = 0.507	704.182	1043.8
300.65 K, x1 = 0.603	708.63	1039.7
300.65 K, x1 = 0.7	713.701	1035.2
300.65 K, x1 = 0.79	718.837	1031.7
300.65 K, x1 = 0.898	725.547	1027.9
300.65 K, x1 = 0.951	729.232	1026.2
300.65 K, x1 = 1	731.766	1025.4
303.15 K, x1 = 0.049	685.097	1058.4
303.15 K, x1 = 0.091	686.359	1055.8
303.15 K, x1 = 0.197	689.806	1050
303.15 K, x1 = 0.296	693.296	1044
303.15 K, x1 = 0.394	697.081	1038.7
303.15 K, x1 = 0.507	701.866	1032.8
303.15 K, x1 = 0.603	706.257	1028.7
303.15 K, x1 = 0.7	711.266	1024.1
303.15 K, x1 = 0.79	716.339	1020.4
303.15 K, x1 = 0.898	722.977	1016.5
303.15 K, x1 = 0.951	726.622	1014.8
303.15 K, x1 = 1	729.112	1014
305.65 K, x1 = 0.049	–	1048.1
305.65 K, x1 = 0.091	–	1045.4
305.65 K, x1 = 0.197	–	1039.5
305.65 K, x1 = 0.296	–	1033.4
305.65 K, x1 = 0.394	–	1028
305.65 K, x1 = 0.507	–	1021.9
305.65 K, x1 = 0.603	–	1017.7
305.65 K, x1 = 0.7	–	1013
305.65 K, x1 = 0.79	–	1009.2
305.65 K, x1 = 0.898	–	1005.2
305.65 K, x1 = 0.951	–	1003.4
305.65 K, x1 = 1	–	1002.7
